Experimental data taken from ChEMBL document CHEMBL1201862, “PubChem BioAssay data set” (2004).
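Grown in 96-well plates, cells were treated for 48 hours with each compound at five concentrations. Insufficient inhibition: endpoint recorded as highest concentration tested. GI50 is the concentration that inhibits growth by half.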 Active and inactive are the calls of the source. No stated cut-off is given here; in the data, active = GI50 up to about 1.1 µM and inactive = higher. Where a SMILES comes first, the peptide text is derived from it. The star is where a group is joined. Boc = CC(C)(C)OC(=O)*; OSu = O=C1CCC(=O)N1O*

Experiments:
Test in all cases: inhibition of tumour cell growth, NCI panel, 48 h
SN12C = test system: SN12C
TK-10 = test system: TK-10
A498 = test system: A498
HOP-62 = test system: HOP-62
786-0 = test system: 786-0
NCI-H226 = test system: NCI-H226
OVCAR-4 = test system: OVCAR-4
KM12 = test system: KM12
HCT-116 = test system: HCT-116
CAKI-1 = test system: CAKI-1
SNB-75 = test system: SNB-75
HL-60 = test system: HL-60
EKVX = test system: EKVX
MOLT-4 = test system: MOLT-4
UACC-62 = test system: UACC-62
HCT-15 = test system: HCT-15
SK-MEL-28 = test system: SK-MEL-28
MDA-N = test system: MDA-N
T47D = test system: T47D
MDA-MB-435 = test system: MDA-MB-435

| SMILES | GI50 (SN12C) | GI50 (TK-10) | GI50 (A498) | GI50 (HOP-62) | GI50 (786-0) | GI50 (NCI-H226) | GI50 (OVCAR-4) | GI50 (KM12) | GI50 (HCT-116) | GI50 (CAKI-1) | GI50 (SNB-75) | GI50 (HL-60) | GI50 (EKVX) | GI50 (MOLT-4) | GI50 (UACC-62) | GI50 (HCT-15) [µM] | GI50 (SK-MEL-28) | GI50 (MDA-N) | GI50 (T47D) | GI50 (MDA-MB-435) |
| --- | --- | --- | --- | --- | --- | --- | --- | --- | --- | --- | --- | --- | --- | --- | --- | --- | --- | --- | --- | --- |
| O=C1Nc2ccccc2N/C1=C\C(=O)c1ccccc1O | > 100 µM (inactive) | > 100 µM (inactive) | > 100 µM (inactive) | > 100 µM (inactive) | > 100 µM (inactive) | > 100 µM (inactive) | > 100 µM (inactive) | > 100 µM (inactive) | > 100 µM (inactive) | > 100 µM (inactive) | > 100 µM (inactive) | > 100 µM (inactive) | > 100 µM (inactive) | > 100 µM (inactive) | > 100 µM (inactive) | > 100 | > 100 µM (inactive) |  |  |  |
| O=c1[nH]c(=O)n(C2OC(CO)C(O)C2O)cc1OCc1ccccc1 (stereo unspecified) | > 100 µM (inactive) | > 100 µM (inactive) | > 100 µM (inactive) | > 100 µM (inactive) | > 100 µM (inactive) | > 100 µM (inactive) | > 100 µM (inactive) | > 100 µM (inactive) | > 63.4 µM (inactive) | > 100 µM (inactive) | > 100 µM (inactive) | > 52.8 µM (inactive) | > 100 µM (inactive) | > 100 µM (inactive) | > 100 µM (inactive) | > 59 | > 100 µM (inactive) |  |  |  |
| CC1=NN(c2cccc(Cl)c2)C(=N/c2nc3ccccc3s2)/C1=C\c1ccc(Cl)cc1 |  | 26.4 µM (inactive) | 22.2 µM (inactive) | 21.5 µM (inactive) | 18.8 µM (inactive) | 21.2 µM (inactive) |  |  | 16.9 µM (inactive) |  | 26.4 µM (inactive) | 22.4 µM (inactive) | 33.2 µM (inactive) | 24.4 µM (inactive) |  | 14.2 | 20.8 µM (inactive) | 23.4 µM (inactive) | 33.6 µM (inactive) |  |
| CN(C(=O)OC(C)(C)C)[C@H]1CCCC[C@H]1N1CCCC1 | > 100 µM (inactive) | > 100 µM (inactive) | > 100 µM (inactive) | > 100 µM (inactive) | > 100 µM (inactive) | > 100 µM (inactive) | > 100 µM (inactive) | > 100 µM (inactive) | > 100 µM (inactive) | > 100 µM (inactive) |  | 5.81 µM (inactive) | > 100 µM (inactive) | > 100 µM (inactive) | > 100 µM (inactive) | > 100 | > 100 µM (inactive) |  | > 100 µM (inactive) | > 100 µM (inactive) |
| COc1cc(C2c3[nH]c4ccc(F)cc4c3C[C@H]3COC(=O)N23)cc(OC)c1O (stereo partly specified) | 13.5 µM (inactive) | > 10 µM (inactive) | 6.71 µM (inactive) | 5.71 µM (inactive) | 11.6 µM (inactive) | 10.4 µM (inactive) | 16.2 µM (inactive) | 12.3 µM (inactive) | 5.78 µM (inactive) | 11 µM (inactive) | 2.29 µM (inactive) | 7.71 µM (inactive) | 24 µM (inactive) | 3.73 µM (inactive) | 12.1 µM (inactive) | 8.69 | 7.96 µM (inactive) |  | 32.5 µM (inactive) |  |
| COc1ccc(CN[C@H]2CCc3cc(OC)c(OC)c(OC)c3-c3ccc(SC)c(=O)cc32)c(OC)c1OC | 0.0381 µM (active) | 0.0849 µM (active) | 0.0296 µM (active) | 0.0319 µM (active) | 0.037 µM (active) | 0.0237 µM (active) | 0.0343 µM (active) | 0.0308 µM (active) | 0.0229 µM (active) | 0.0452 µM (active) | 0.0184 µM (active) | 0.0266 µM (active) | 0.0237 µM (active) | 0.0361 µM (active) | 0.023 µM (active) | 0.0266 | 0.0443 µM (active) |  |  |  |
| Oc1cc(-c2cccc3ccccc23)nc2ncccc12 | 0.09 µM (active) |  | 0.0206 µM (active) | 0.962 µM (active) | 0.0321 µM (active) | 0.0339 µM (active) | 0.0542 µM (active) | 0.0122 µM (active) | 0.0261 µM (active) | 0.0242 µM (active) | 0.00684 µM (active) | 0.00401 µM (active) | 0.0948 µM (active) | 0.0506 µM (active) | 0.0102 µM (active) | 0.00627 | 0.0546 µM (active) | 0.00119 µM (active) |  | 0.000865 µM (active) |
| CC(C)(C)OC(=O)NC(Cc1ccc(O)cc1)C(=O)NC(CCCCN)C(=O)NC(Cc1ccc(O)cc1)C(=O)NC(CCCCN)C(=O)ON1C(=O)CCC1=O (stereo unspecified) (Boc-YKYK-OSu; configuration not given here) | > 100 µM (inactive) | > 100 µM (inactive) | > 100 µM (inactive) | > 100 µM (inactive) | > 100 µM (inactive) | > 100 µM (inactive) |  | > 100 µM (inactive) | > 100 µM (inactive) |  | > 100 µM (inactive) | > 100 µM (inactive) | > 100 µM (inactive) | > 100 µM (inactive) | > 100 µM (inactive) | > 100 | > 100 µM (inactive) | > 100 µM (inactive) | > 100 µM (inactive) |  |
